Data as given in patent publication US20070219214A1, “Dual NK2/NK3-antagonists, pharmaceutical compositions comprising them, and processes for their preparation” (Solvay pharmaceuticals GmbH, priority 2006, published 2007).

Columns and labels:
human NK2-receptor = target: T1, human NK2-receptor (Homo sapiens, UniProt P21452); test: Binding potency of the test substances to NK2-receptors in vitro ([3H]-SR 48968 displacement); design: expressed in transfected cells; host or cells: CHO cells (membrane preparation); conditions: human NK2-receptor in CHO cell membranes, [3H]-SR 48968 (saredutant); average of at least three measurements; read-out: pKi, binding potency to NK2-receptors (converted)
T1 sequence (P21452 1-398): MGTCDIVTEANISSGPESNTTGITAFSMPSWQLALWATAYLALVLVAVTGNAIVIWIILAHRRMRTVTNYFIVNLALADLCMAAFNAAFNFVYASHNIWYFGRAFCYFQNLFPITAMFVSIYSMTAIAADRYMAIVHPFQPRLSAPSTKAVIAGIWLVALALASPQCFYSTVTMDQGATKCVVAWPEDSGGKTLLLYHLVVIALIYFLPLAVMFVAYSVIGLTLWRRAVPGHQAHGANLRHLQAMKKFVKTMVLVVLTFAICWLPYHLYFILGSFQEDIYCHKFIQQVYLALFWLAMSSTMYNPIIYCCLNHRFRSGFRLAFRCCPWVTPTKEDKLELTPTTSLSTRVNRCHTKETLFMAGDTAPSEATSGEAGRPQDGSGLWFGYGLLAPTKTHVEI
Text: 2. Determination of the Binding Potency of the Test Substances to NK2-Receptors in Vitro
The affinity of test compounds for NK2-receptors can be determined by measuring the ability of the test compound to displace a radiolabeled ligand from its specific binding site.
(§1) The radiolabel used in this assay is [^3H]-SR 48968 (saredutant). Receptors were obtained from membrane preparations of CHO-cells (Chinese Hamster Ovary cells), in which the human NK2-receptor was stably expressed. Membranes were incubated with [^3H]-saredutant in the absence or presence of test compounds at different concentrations, diluted in a buffer system. Separation of bound radioactivity from free radioactivity was done by filtration through glass fiber filters (Packard GF/B) with several washings with ice-cold buffer solution. Bound radioactivity was measured with a liquid scintillation counter (total binding). Unspecific binding was determined by incubation with an excess (0.1 μmol/l) of unlabeled saredutant. Specific binding is obtained by subtracting the unspecific binding from the total binding.
(§2) Radioactivity of the specific binding was plotted against the concentration of the test compound and IC50 values, i.e. the concentration of test compound by which 50% of the radioligand is displaced, were calculated. The inhibition constant (Ki) was calculated according to the Cheng-Prusoff equation, and listed as its negative logarithmic value (pKi). The pKi value describes the potency of a test compound to bind to a receptor.
(§3) The average result of all measurements is listed above.

human NK3 receptor = target: T2, human NK3 receptor (Homo sapiens, UniProt P29371); test: Binding potency of the test substances to NK3-receptors in vitro ([3H]-SR 142801 displacement); design: expressed in transfected cells; host or cells: CHO cells (membrane preparation); conditions: human NK3-receptor in CHO cell membranes, [3H]-SR 142801 (osanetant), average of at least three measurements; for Ki: read-out: pKi, binding potency to NK3-receptors (converted)
T2 sequence (P29371 1-465): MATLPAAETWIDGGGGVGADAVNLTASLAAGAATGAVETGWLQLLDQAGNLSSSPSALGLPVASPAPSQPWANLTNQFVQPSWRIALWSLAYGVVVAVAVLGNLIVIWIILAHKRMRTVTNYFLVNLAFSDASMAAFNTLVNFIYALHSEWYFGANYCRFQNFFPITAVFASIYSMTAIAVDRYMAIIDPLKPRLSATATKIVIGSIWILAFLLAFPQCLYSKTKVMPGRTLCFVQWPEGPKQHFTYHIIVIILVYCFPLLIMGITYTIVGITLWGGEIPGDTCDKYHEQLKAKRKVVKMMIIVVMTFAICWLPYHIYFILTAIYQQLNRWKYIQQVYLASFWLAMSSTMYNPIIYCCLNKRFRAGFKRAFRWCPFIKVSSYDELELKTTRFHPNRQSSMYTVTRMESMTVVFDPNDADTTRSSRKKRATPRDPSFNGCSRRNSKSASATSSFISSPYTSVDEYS
Text: 3. Determination of the Binding Potency of the Test Substances to NK3-Receptors in Vitro
The affinity of test compounds for NK3-receptors can be determined by measuring the ability of the test compound to displace a radiolabeled ligand from its specific binding site.
as §1, with “142801 (osanetant).” for “48968 (saredutant).”, “NK3-receptor” for “NK2-receptor”, “[^3H]-osanetant” for “[^3H]-saredutant”, “(1” for “(0.1”, “osanetant.” for “saredutant.”
as §2, with “(pKi)” for “(pKi).”
as §3

| Compound | Ki (human NK2-receptor) [nM] | Ki (human NK3 receptor) [nM] | pKi, binding potency to NK3-receptors (human NK3 receptor) |
| --- | --- | --- | --- |
| CN(C)C(=O)C1(N2CCCCC2)CCN(CCC(CN(C)C(=O)c2ccc3c(c2)OC(F)(F)O3)c2ccc(Cl)c(Cl)c2)CC1 (stereo not drawn) [compound 63] | 3.98 | 20 |  |
| CN(C)C(=O)C1(N2CCCCC2)CCN(CCC(CN(C)C(=O)c2ccsc2)c2ccc(Cl)c(Cl)c2)CC1 (stereo not drawn) [compound 38] | 1.58 | 25.1 |  |
| CN(C)C(=O)C1(N2CCCCC2)CCN(CCC(CN(C)C(=O)c2ccc(NC(=O)OC(C)(C)C)cc2)c2ccc(Cl)c(Cl)c2)CC1 (stereo not drawn) [compound 54] |  | 6.31 |  |
| CN(C)C(=O)C1(N2CCCCC2)CCN(CCC(CN(C)C(=O)C2CC2)c2ccc(Cl)c(Cl)c2)CC1 (stereo not drawn) [compound 22] | 15.8 | 50.1 |  |
| CN(C)C(=O)C1(N2CCCCC2)CCN(CCC(CN(C)C(=O)c2c(F)c(F)c(F)c(F)c2F)c2ccc(Cl)c(Cl)c2)CC1 (stereo not drawn) [compound 73] | 12.6 | 39.8 |  |
| CN(C)C(=O)C1(N2CCCCC2)CCN(CCC(CN(C)C(=O)c2cc(=O)c3ccccc3o2)c2ccc(Cl)c(Cl)c2)CC1 (stereo not drawn) [compound 45] | 2.51 | 12.6 |  |
| CN(C)C(=O)C1(N2CCCCC2)CCN(CCC(CN(C)C(=O)c2ccccc2C(=O)O)c2ccc(Cl)c(Cl)c2)CC1 (stereo not drawn) [compound 25] | 5.01 | 63.1 |  |
| CN(C)C(=O)C1(N2CCCCC2)CCN(CCC(CN(C)C(=O)c2ccncc2)c2ccc(Cl)c(Cl)c2)CC1 (stereo not drawn) [compound 44] | 5.01 | 31.6 |  |
| CN(C)C(=O)C1(N2CCCCC2)CCN(CCC(CN(C)C(=O)Cc2c[nH]c3ccccc23)c2ccc(Cl)c(Cl)c2)CC1 (stereo not drawn) [compound 40] | 12.6 | 63.1 |  |
| CSc1ncc(C(=O)N(C)CC(CCN2CCC(C(=O)N(C)C)(N3CCCCC3)CC2)c2ccc(Cl)c(Cl)c2)n1Cc1ccccc1 (stereo not drawn) [compound 20] | 25.1 |  |  |
| CN(C)C(=O)C1(N2CCCCC2)CCN(CCC(CN(C)C(=O)c2ccc(S(N)(=O)=O)cc2)c2ccc(Cl)c(Cl)c2)CC1 (stereo not drawn) [compound 46] | 6.31 | 31.6 |  |
| CN(C)C(=O)C1(N2CCCCC2)CCN(CCC(CN(C)C(=O)c2cccn2C)c2ccc(Cl)c(Cl)c2)CC1 (stereo not drawn) [compound 30] | 2.51 | 20 |  |
| CN(C)C(=O)C1(N2CCCCC2)CCN(CCC(CN(C)C(=O)Cc2cccnc2)c2ccc(Cl)c(Cl)c2)CC1 (stereo not drawn) [compound 50] | 39.8 | 10 |  |
| CN(C)C(=O)C1(N2CCCCC2)CCN(CCC(CN(C)C(=O)c2ccc[nH]2)c2ccc(Cl)c(Cl)c2)CC1 (stereo not drawn) [compound 35] | 3.16 |  |  |
| CN(C)C(=O)C1(N2CCCCC2)CCN(CCC(CN(C)C(=O)c2cc3ccccc3[nH]2)c2ccc(Cl)c(Cl)c2)CC1 (stereo not drawn) [compound 39] | 20 | 31.6 |  |
| CN(C)C(=O)C1(N2CCCCC2)CCN(CCC(CN(C)C(=O)c2ccco2)c2ccc(Cl)c(Cl)c2)CC1 (stereo not drawn) [compound 31] | 3.98 | 39.8 |  |
| CN(C)C(=O)C1(N2CCCCC2)CCN(CCC(CN(C)C(=O)CC(c2ccccc2)c2ccccc2)c2ccc(Cl)c(Cl)c2)CC1 (stereo not drawn) [compound 28] | 20 |  |  |
| CN(C)C(=O)C1(N2CCCCC2)CCN(CC[C@H](CN(C)C(=O)C(Cc2ccc(-c3ccccc3)cc2)NC(=O)C(C)(C)C)c2ccc(Cl)c(Cl)c2)CC1 (stereo partly drawn) [compound 60] |  |  | 7.2 |
| CN(C)C(=O)C1(N2CCCCC2)CCN(CCC(CN(C)C(=O)Cc2cc(O)nc(O)n2)c2ccc(Cl)c(Cl)c2)CC1 (stereo not drawn) [compound 57] |  | 63.1 |  |
| CN(C)C(=O)C1(N2CCCCC2)CCN(CCC(CN(C)C(=O)c2cnccn2)c2ccc(Cl)c(Cl)c2)CC1 (stereo not drawn) [compound 42] | 15.8 |  |  |
| COc1ccc(-c2ocnc2C(=O)N(C)CC(CCN2CCC(C(=O)N(C)C)(N3CCCCC3)CC2)c2ccc(Cl)c(Cl)c2)cc1 (stereo not drawn) [compound 66] |  | 20 |  |
| CN(C)C(=O)C1(N2CCCCC2)CCN(CCC(CN(C)C(=O)c2ccc(-c3ccccc3)cc2)c2ccc(Cl)c(Cl)c2)CC1 (stereo not drawn) [compound 27] | 15.8 |  |  |

The remaining lines, values ahead:

| Ki (human NK2-receptor) [nM] | Ki (human NK3 receptor) [nM] | pKi, binding potency to NK3-receptors (human NK3 receptor) | Compound |
| --- | --- | --- | --- |
| 12.6 | 39.8 |  | CN(C)C(=O)C1(N2CCCCC2)CCN(CCC(CN(C)C(=O)c2ccc(Cl)cc2)c2ccc(Cl)c(Cl)c2)CC1 (stereo not drawn) [compound 84] |
| 12.6 | 63.1 |  | CN(C)C(=O)C1(N2CCCCC2)CCN(CCC(CN(C)C(=O)c2ccc(C(F)(F)F)cc2)c2ccc(Cl)c(Cl)c2)CC1 (stereo not drawn) [compound 86] |
| 12.6 | 15.8 |  | CN(C)C(=O)C1(N2CCCCC2)CCN(CCC(CN(C)C(=O)Cc2ccccc2)c2ccc(Cl)c(Cl)c2)CC1 (stereo not drawn) [compound 89] |
| 1.58 | 25.1 |  | Cc1ccccc1C(=O)N(C)CC(CCN1CCC(C(=O)N(C)C)(N2CCCCC2)CC1)c1ccc(Cl)c(Cl)c1 (stereo not drawn) [compound 78] |
| ≤ 10 |  |  | CCN(C)C(=O)C1(N2CCCCC2)CCN(CC[C@H](CN(C)C(=O)c2ccccc2)c2ccc(Cl)c(Cl)c2)CC1 [compound 95, 1′-[(3S)-4-[benzoyl(methyl)amino]-3-(3,4-dichlorophenyl)butyl]-N-ethyl-N-methyl-1,4′-bipiperidine-4′-carboxamide] |
| 20 |  |  | CN(C)C(=O)C1(N2CCCCC2)CCN(CCC(CN(C)C(=O)c2cccc3ccccc23)c2ccc(Cl)c(Cl)c2)CC1 (stereo not drawn) [compound 92] |
| 15.8 | 50.1 |  | CN(C)C(=O)C1(N2CCCCC2)CCN(CCC(CN(C)C(=O)c2c(Cl)cccc2Cl)c2ccc(Cl)c(Cl)c2)CC1 (stereo not drawn) [compound 76] |
| 2 | 20 |  | CN(C)C(=O)C1(N2CCCCC2)CCN(CCC(CN(C)C(=O)c2cccc(F)c2)c2ccc(Cl)c(Cl)c2)CC1 (stereo not drawn) [compound 79] |
| 7.94 | 39.8 |  | Cc1ccc(C(=O)N(C)CC(CCN2CCC(C(=O)N(C)C)(N3CCCCC3)CC2)c2ccc(Cl)c(Cl)c2)cc1 (stereo not drawn) [compound 87] |
| 12.6 | 79.4 |  | CN(C)C(=O)C1(N2CCCCC2)CCN(CCC(CN(C)C(=O)C2CC2c2ccccc2)c2ccc(Cl)c(Cl)c2)CC1 (stereo not drawn) [compound 90] |
| 1 | 15.8 |  | CN(C[C@@H](CCN1CCC(C(=O)N2CCCC2)(N2CCCCC2)CC1)c1ccc(Cl)c(Cl)c1)C(=O)c1ccccc1 [compound 124, N-{(2S)-2-(3,4-dichlorophenyl)-4-[4′-(pyrrolidin-1-ylcarbonyl)-1,4′-bipiperidin-1′-yl]butyl}-N-methylbenzamide] |
| 3.16 |  |  | CN(C)C(=O)C1CCCCN1C1CCN(CC[C@H](CN(C)C(=O)c2ccccc2)c2ccc(Cl)c(Cl)c2)CC1 (stereo partly drawn) [compound 100] |
| ≤ 10 |  |  | CN(C)C(=O)C1CCCCN1C1CCN(CC[C@H](CN(C)C(=O)c2ccccc2)c2ccc(Cl)c(Cl)c2)CC1 (stereo partly drawn) [compound 100, 1′-[(3S)-4-[benzoyl(methyl)amino]-3-(3,4-dichlorophenyl)-butyl]-N,N-dimethyl-1,4′-bipiperidine-2-carboxamide] |
